Here are results for one compound from patent EP2818471A1, “Nitrogen bicyclic compounds as inhibitors for Scyl1 and Grk5” (Max-Planck-Gesellschaft zur Förderung der Wissenschaften …, priority 2013, dated 2014).

The test system of data set [1] is beta-TC6. The data set can be described thus: MTT cytotoxicity assay (cell viability and proliferation). In kind it is cell-based, mouse. Particulars: beta-TC6, 72 h treatment, concentrations up to 10 µM. As to the method:
Using a MTT approach, we determined the effect on cell viability and proliferation of beta-TC6 and C2C12 cells to display potential cytotoxicity of the compounds according to the invention in vitro after a 72 h treatment.
For MTT (3-(4,5-dimethylthiazol-2-yl)-2,5-diphenyl tetrazolium bromide) transformation, 1/5 of total volume of a 5 mg/mL MTT stock solution was added to the cells as well as control wells and incubated at 37 °C, 5 % CO2 (v/v) for 1 h. Then 1/2 of total volume of MTT-stop solution was added and plates were incubated overnight in the dark at 25 °C. The optical density (OD) was measured using a multiwell spectrophotometer at a wavelength of 570 nm.
For orientation: Formazan colour is commonly taken as a measure of viable cells.

The test system of data set [2] is beta-TC6 cells. Briefly: Insulin release in low glucose medium, rat/mouse insulin ELISA. In kind it is cell-based. Particulars: low glucose 1.125 mM (20 mg/dL), 2 h, relative to DMSO control; Example 6, Figure 5. The method, then: In order to measure the insulin released upon compound treatment beta-TC6 insulinoma (mouse) and RIN-T2B-5AH (rat islet tumor subclone) cells were washed and incubated for 2 h in high (4.5 g/L) or low (1.125 g/L) glucose media at 37 °C. After incubation, the supernatant of the beta-TC6 insulinoma cells was diluted 1:20, whereas the supernatants of the RIN-T2B-5AH were diluted 1:10. The insulin release was measured with rat/mouse insulin ELISA (Merck Millipore Darmstadt, Cat. # EZRMI-13K) by following the manufacture's protocol. The enzyme activity of the horseradish peroxidase of the immobilized biotinylated antibodies was monitored spectrophotometrically by the increased absorbency at 490 nm, and corrected by the absorbency at 610 nm.
Hypoglycemia can cause impairment of cognitive function, motoric control or even consciousness. […] Therefore, we verified the glucose dependent insulin release in beta-TC6 cells using media with 1.125 mM (20 mg/dL) glucose. Cells were cultured for 24 h in a 96-well plate, washed with PBS and then appropriate media was replaced for 2 h at 37°C and 5 % (v/v) CO2. […] The enzyme activity of the horseradish peroxidase of the immobilized biotinylated antibodies was monitored spectrophotometrically by the increased absorbency at 490 nm, and corrected by the absorbency at 610 nm. […]
For orientation: An ELISA detects its analyte on a solid surface through an enzyme-linked reagent.

The subject of data set [3] is beta-TC6 cell system. Briefly: Comparison of insulin release with commercially available inhibitors, mouse/rat insulin ELISA. It is filed as cell-based. Particulars: 5µM, 2 h, DMSO = 0, Table 9. The method, then:
Based on literature references, several commercially available inhibitors were compared with compounds according to the invention. […] Cells were cultured for 24 h before treated with the inventive compounds and control inhibitors for 2 h at 37 °C and 5 % (v/v) CO2. Insulin in the supernatant was detected by mouse/rat insulin ELISA.

Consider `CCN(CC)CCNC(=O)c1c(C)[nH]c(/C=C2\C(=O)Nc3ccc(F)cc32)c1C` [Sunitinib, reference compound], for which the toxic effect entry in data set [1] is recorded as “toxic in lower concentrations”. Further, in data set [2], the insulin release is given as 0.77 ± 0.03. The “Insulin Release [%]” value in data set [3] (listed as Sutent) stood at 93.35%. This compound returned an activation at 5 µM in data set [3] (Mus musculus, Beta-TC6) of 93.3 ± 14.4%.
